The results in this text go back to patent US6310095A, “Inhibitors of protein isoprenyl transferases” (University of Pittsburgh, priority 1998, dated 2001).

The structures appear in SMILES notation. Where a name gives a salt, the structure may show the parent alone.

One test deals with T1, protein farnesyltransferase (Rattus norvegicus, UniProt Q02293+Q04631).
T1 construct: Rat brain protein farnesyltransferase activity is measured; from tissue; host or cells: rat brain; purified according to Reiss et al., Cell 62:81-88 (1990), steps one through three
Nature of the test: in vitro inhibition of protein farnesyltransferase (scintillation proximity assay, biotin-K Ras B fragment). The format is biochemical. To be noted: at 1 × 10^-6 M. An excerpt:
The ability of the compounds of the invention to inhibit protein farnesyltransferase or protein geranylgeranyltransferase can be measured according to the method of Moores, et al., J. Biol. Chem. 266: 14603 (1991) or the method of Vogt, et al., J. Biol. Chem. 270:660-664 (1995). In addition, procedures for determination of the inhibition of farnesylation of the oncogene protein Ras are described by Goldstein, et al., J. Biol. Chem., 266:15575-15578 (1991) and by Singh in U.S. Pat. No. 5,245,061.
In addition, in vitro inhibition of protein farnesyltransferase may be measured by the following procedure. Rat brain protein farnesyltransferase activity is measured using an Amersham Life Science commercial scintillation proximity assay kit and substituting a biotin-K Ras B fragment (biotin-[…]CO2 H), 0.1 mM final concentration, for the biotin-lamin substrate provided by Amersham. The enzyme is purified according to Reiss, Y., et al., Cell, 62: 81-88 (1990), utilizing steps one through three.
The % inhibition of protein farnesyltransferase was determined for representative compounds of the invention.
On to `CSCC[C@H](NC(=O)c1ccc(CCc2ccc3ccccc3c2)cc1-c1ccccc1C)C(=O)O` [Example 468], for which the “% inhibition of farnesyltransferase” value stood at 96%. For the compound `CSCC[C@H](NC(=O)c1ccc(C=CCc2ccccc2)cc1-c1ccccc1C)C(=O)O` [Example 469], the “% inhibition of farnesyltransferase” value is 92%. On to `CSCC[C@H](NC(=O)c1ccc(CCCc2ccc3ccccc3c2)cc1-c1ccccc1C)C(=O)[O-].[Li+]` [Example 470], for which the “% inhibition of farnesyltransferase” value came to 95%. As to `CSCC[C@H](NC(=O)c1ccc(/C=C/CC2CCCCC2)cc1-c1ccccc1C)C(=O)O` [Example 471], the “% inhibition of farnesyltransferase” value is 94%. Consider `CSCC[C@H](NC(=O)c1ccc(/C=C/CCc2ccccc2)cc1-c1ccccc1C)C(=O)O` [Example 472], for which the “% inhibition of farnesyltransferase” value amounted to 97%.

With `CSCC[C@H](NC(=O)c1ccc(CCCC(=O)c2ccc3ccccc3c2)cc1-c1ccccc1C)C(=O)O` [Example 473], the “% inhibition of farnesyltransferase” value is 96%. As to `CSCC[C@H](NC(=O)c1ccc(/C=C/CC(O)c2ccc3ccccc3c2)cc1-c1ccccc1C)C(=O)O` (some centres unmarked) [Example 474], the “% inhibition of farnesyltransferase” value was found to be 92%. For `CSCC[C@H](NC(=O)c1ccc(CCCCC2CCCCC2)cc1-c1ccccc1C)C(=O)O` [Example 478], the “% inhibition of farnesyltransferase” value is given as 98%. As to `CSCC[C@H](NC(=O)c1ccc(C=CCCCc2ccccc2)cc1-c1ccccc1C)C(=O)O` [Example 480], the “% inhibition of farnesyltransferase” value stood at 87%. As for `CSCC[C@H](NC(=O)c1ccc(/C=C/c2cncnc2)cc1-c1ccccc1C)C(=O)O` [Example 494], the “% inhibition of farnesyltransferase” value is 96%.

With `CSCC[C@H](NC(=O)c1ccc(/C=C/c2cnccn2)cc1-c1ccccc1C)C(=O)O` [Example 495], the “% inhibition of farnesyltransferase” value stood at 95%. As to `CSCC[C@H](NC(=O)c1ccc(C=CCc2ccc3ccccc3c2)cc1-c1ccccc1C)C(=O)O` [Example 496], the “% inhibition of farnesyltransferase” value was determined as 93%. As to `CSCC[C@H](NC(=O)c1ccc(Sc2ccc3ccccc3c2)cc1-c1ccccc1C)C(=O)O` [Example 497], the “% inhibition of farnesyltransferase” value came out at 94%.

Consider `CSCC[C@H](NC(=O)c1ccc(SCCc2ccccc2)cc1-c1ccccc1C)C(=O)O` [Example 498], for which the “% inhibition of farnesyltransferase” value is on record as 98%.

The same test, now with this note: at 1 × 10^-6 M; read-out: % inhibition of farnesyltransferase.
One may read the inhibition as the relative decrease from the control value, in per cent. `CSCC[C@H](NC(=O)c1ccc(NCC(CO)(Cc2ccccc2)Cc2ccccc2)cc1-c1ccccc1C)C(=O)O` [Example 475, N-[4-N-(2,2-dibenzyl-3-hydroxypropyl)amino-2-(2-methylphenyl)benzoyl]methionine sodium salt]: the inhibition at 1 µM was 21%. On to `CSCC[C@H](NC(=O)c1ccc(NCC(CO)Cc2ccccc2)cc1-c1ccccc1C)C(=O)O` (some centres unmarked) [Example 476, N-[4-N-(2-benzyl-3-hydroxypropyl)amino-2-(2-methylphenyl)benzoyl]methioninesodium salt], for which the inhibition at 1 µM came out at 91%. Take `CSCC[C@H](NC(=O)c1ccc(NCC(CO)CC2CCCCC2)cc1-c1ccccc1C)C(=O)O` (some centres unmarked) [Example 479, N-[4-N-(2-cyclohexylmethyl-3-hydroxypropyl)amino-2-(2-methylphenyl)benzoyl]methionine]: the inhibition at 1 µM is 95%. The same measure, in the same setting: under `CSCC[C@H](NC(=O)c1ccc(NC(=O)c2cnccc2C(F)(F)F)cc1-c1ccccc1C)C(=O)O` [Example 481, N-[4-N-(4-trifluoromethylnicotinoyl)amino-2-(2-methylphenyl)benzoyl]methionine lithium salt] stands 95%. In the case of `CSCC[C@H](NC(=O)c1ccc(NCCO)cc1-c1ccccc1)C(=O)O` [Example 502, N-[4-N-2-hydroxyethylamino-2-phenylbenzoyl]methionine], the inhibition at 1 µM came out at 24%. Still for that read-out and setting: under `CSCC[C@H](NC(=O)c1ccc(NC(=O)[C@@H](N)COCc2ccccc2)cc1-c1ccccc1)C(=O)O` [Example 503, N-[4-(N-2-amino-3-benzyloxypropionyl)amino-2-phenylbenzoyl]methionine] stands 57%; under `CSCC[C@H](NC(=O)c1ccc(CN(Cc2ccccc2)Cc2ccco2)cc1-c1ccccc1C)C(=O)O` [Example 504, N-[4-N-(furan-2-ylmethyl)-N-benzylaminomethyl-2-(2-methylphenyl)benzoyl]methionine lithium salt], 90%; under `CSCC[C@H](NC(=O)c1ccc(CN(CCO)c2ccccc2)cc1-c1ccccc1)C(=O)O` [Example 505], 72%.

On to `CSCC[C@H](NC(=O)c1ccc(CN(CCc2ccccc2)c2ccccc2)cc1-c1ccccc1C)C(=O)O` [Example 507], for which the inhibition at 1 µM stood at 96%.

Turning to `CSCC[C@H](NC(=O)c1ccc(CN(CCCc2ccccc2)c2ccccc2)cc1-c1ccccc1C)C(=O)O` [Example 508], the inhibition at 1 µM is 95%. For `CSCC[C@H](NC(=O)c1ccc(CN(CC(c2ccccc2)c2ccccc2)c2ccccc2)cc1-c1ccccc1C)C(=O)O` [Example 509], the inhibition at 1 µM is 77%.

With `CSCC[C@H](NC(=O)c1ccc(CN(CC23CC4CC(CC(C4)C2)C3)c2ccccc2)cc1-c1ccccc1C)C(=O)O` [Example 510], the inhibition at 1 µM was 84%. With `CSCC[C@H](NC(=O)c1ccc(CN(Cc2ccccc2)Cc2ccccc2)cc1-c1ccccc1C)C(=O)O` [Example 512, N-[4-N,N-dibenzylaminomethyl-2-(2-methylphenyl)benzoyl]methionine lithium salt], the inhibition at 1 µM came to 94%. As for `CSCC[C@H](NC(=O)c1ccc(CN(CCc2ccccc2)Cc2ccccc2)cc1-c1ccccc1C)C(=O)O` [Example 513, N-[4-N-(2-phenylethyl)-N-benzylaminomethyl-2-(2-methylphenyl)benzoyl]methionine lithium salt], the inhibition at 1 µM was determined as 96%.

For `CSCC[C@H](NC(=O)c1ccc(CN(Cc2ccccc2)Cc2cccc(Oc3ccccc3)c2)cc1-c1ccccc1C)C(=O)O` [Example 514, N-[4-N-(3-phenoxybenzyl)-N-benzylaminomethyl-2-(2-methylphenyl)benzoyl]methionine lithium salt], the inhibition at 1 µM was determined as 94%. Still for that read-out and setting: the same measure for `CSCC[C@H](NC(=O)c1ccc(CN(CCO)Cc2ccccc2)cc1-c1ccccc1)C(=O)O` [Example 515, N-[4-N-(2-hydroxyethyl)-N-benzylaminomethyl-2-phenylbenzoyl]methionine lithium salt]: 72%.

With `CSCC[C@H](NC(=O)c1ccc(CN(C)CCc2ccccc2)cc1-c1ccccc1C)C(=O)O` [Example 516, N-[4-N-methyl-N-(2-phenyethyl)aminomethyl-2-(2-methylphenyl)benzoyl]methionine lithium salt], the inhibition at 1 µM was determined as 95%.

Staying with this test, now noted: at 1 × 10^-7 M.
As to `CSCC[C@H](NC(=O)c1ccc(C#Cc2cncnc2)cc1-c1ccccc1C)C(=O)[O-].[Li+]` [Example 493], the “% inhibition of farnesyltransferase” value is 51%. As to `C=C(C)C1CC=C(COCc2ccc(C(=O)N[C@@H](CCSC)C(=O)O)c(-c3ccccc3C)c2)CC1` (some centres unmarked) [Example 521], the “% inhibition of farnesyltransferase” value was determined as 94%.

Take `CSCC[C@H](NC(=O)c1ccc(COC(Cc2ccccc2)Cc2ccccc2)cc1-c1ccccc1C)C(=O)[O-].[Li+]` [Example 522]: the “% inhibition of farnesyltransferase” value is listed as 93%.

The same test, now with this note: at 1 × 10^-7 M; read-out: % inhibition of farnesyltransferase.
Regarding `CSCC[C@H](NC(=O)c1ccc(CN(CCC23CC4CC(CC(C4)C2)C3)c2ccccc2)cc1-c1ccccc1C)C(=O)O` [Example 511], the inhibition at 0.1 µM was found to be 82%. `CSCC[C@H](NC(=O)c1ccc(CNCCc2c[nH]c3ccccc23)cc1-c1ccccc1C)C(=O)O` [Example 519, N-[4-N-(2-indol-3-ylethyl)aminomethyl-2-(2-methylphenyl)benzoyl]methionine lithium salt]: the inhibition at 0.1 µM was 89%. Regarding `CSCC[C@H](NC(=O)c1ccc(CN[C@H](CO)C2CCCCC2)cc1-c1ccccc1C)C(=O)O` [Example 520, N-[4-N-(2-cyclohexyl-1-ethan-1-ol-2-yl)aminomethyl-2-(2-methylphenyl)benzoyl]methionine lithium salt], the inhibition at 0.1 µM was 97%. As to `CSCC[C@H](NC(=O)c1ccc(CNC(Cc2ccccc2)Cc2ccccc2)cc1-c1ccccc1C)C(=O)O` [Example 523, N-[4-N-(1,3-diphenylpropan-2-yl)aminomethyl-2-(2-methylphenyl)benzoyl]methionine lithium salt], the inhibition at 0.1 µM is 97%.

With `CSCC[C@H](NC(=O)c1ccc(CNC(CC2CCCCC2)CC2CCCCC2)cc1-c1ccccc1C)C(=O)O` [Example 524, N-[4-N-(1,3-dicyclohexylpropan-2-yl)aminomethyl-2-(2-methylphenyl)benzoyl]methionine lithium salt], the inhibition at 0.1 µM amounted to 99%.

The same test, now with this note: at 1 × 10^-8 M; read-out: % inhibition of farnesyltransferase.
Regarding `CSCC[C@H](NC(=O)c1ccc(CN(Cc2ccccc2)c2cnccn2)cc1-c1ccccc1C)C(=O)O` [Example 517, N-[4-N-benzyl-N-pyrazin-2-ylaminomethyl-2-(2-methylphenyl)benzoyl]methionine lithium salt], the inhibition at 0.01 µM is 92%. In the case of `CSCC[C@H](NC(=O)c1ccc(CN(CCc2ccccc2)c2cncnc2)cc1-c1ccccc1C)C(=O)O` [Example 518, N-[4-N-(2-phenyethyl)-N-pyrimidin-5-ylaminomethyl-2-(2-methylphenyl)benzoyl]methionine lithium salt], the inhibition at 0.01 µM worked out at 90%.
